Laboratory results from paper PMC9952648, “Structural Features Governing the Metabolic Stability of Tetraethyl-Substituted Nitroxides in Rat Liver Microsomes” (Antioxidants, 2023).
Like-named read-outs stand apart in the source and are kept apart here. Marks after values point to notes of the source that are not given here.

Experiments:
[1] = tested on: liver homogenates; parameters: method as in PMID 34641310; settings: ref 29; cited from earlier work
[2] = Reduction of nitroxides by excess ascorbate monitored by stopped-flow EPR; type: physicochemical; settings: potassium phosphate buffer 0.1 M, pH 7.4, equilibrated with air, 21 °C; This work
Source text: A 4-bore AquaX quartz cell (Bruker) inserted into the cavity was connected to a Bio-Logic MPS-51 stop-flow apparatus with three syringes (Bio-Logic, Claix, France) controlled by the Bio-Logic MPS software. […] The initial second-order reaction rate constant of the reaction of nitroxides with ascorbate, k0 values was derived from experimental results as previously described.

[3] = tested on: rat liver microsomes (RLM); settings: anaerobic; for EPR signal regenerated by reoxidation with potassium ferricyanide: ferricyanide 1 mM added to whole system after 30 min incubation (nitroxide 5: with simultaneous Clo 25 μM)
Method: Addition of NADPH to a final concentration of 1 mM started the reaction. Samples were mixed and transferred to glass microcapillary pipettes (50 μL, Hirschmann) that had been previously purged with N2.

[4] = cited from earlier work
[5] = tested on: rat liver microsomes (RLM); assay: Aerobic incubation of nitroxides with rat liver microsomes and NADPH monitored by EPR; settings: for Nitroxide recovered upon reoxidation with potassium ferricyanide: ferricyanide 1 mM added to whole system after 30 min incubation; for Initial rate of decrease, + Clo / Initial rate of decrease, + Clo (per P450): whole system + clotrimazole 25 μM; for Initial rate of decrease, + Clo / Initial rate of decrease, + Clo (per P450) / Initial rate of decrease, +DPI / Initial rate of decrease, +DPI (per P450) / Initial rate of decrease, -NADPH / Initial rate of decrease, -RLM: nitroxide 100 µM; for Initial rate of decrease, +DPI / Initial rate of decrease, +DPI (per P450): whole system + diphenyliodonium chloride 100 μM; for Initial rate of decrease, WS / Initial rate of decrease, WS (per P450): whole system: nitroxide 100 µM + RLM + NADPH, pH 7.4, 21 °C; for Initial rate of decrease, -NADPH: without NADPH; for Initial rate of decrease, -RLM: without RLM; for Decay in 30 min (conversion by P450): RLM + NADPH
[6] = whole system + clotrimazole 25 μM, nitroxide 100 μM
[7] = whole system + diphenyliodonium chloride 100 μM, nitroxide 100 μM
[8] = whole system: nitroxide 100 μM + RLM + NADPH, pH 7.4, 21 °C
[9] = reaction measured with ascorbate and glutathione mixtures

SMILES | Initial second-order reaction rate constant k0 for reduction by excess ascorbate [2] [M⁻¹ s⁻¹] | EPR signal regenerated by reoxidation with potassium ferricyanide [3] | Initial second-order reaction rate constant k0 for reduction by excess ascorbate [4, 9] | Initial second-order reaction rate constant k0 for reduction by excess ascorbate ([4]; ref 42) [M⁻¹ s⁻¹] | Nitroxide recovered upon reoxidation with potassium ferricyanide [5] | Initial rate of decrease, + Clo [5] | Initial rate of decrease, +DPI [5] | Initial rate of decrease, WS [5] [nmol·min^−1·mg^−1 prot] | Initial rate of decrease, WS (per P450) [5] [nmol·min^−1·nmol^−1 P450] | Initial rate of decrease, -NADPH [5] | Initial rate of decrease, -RLM [5] | other results
CCC1(CC)CC(CN)C(CC)(CC)N1[O] (centres unmarked) [Compound 6, 3-(aminomethyl)-2,2,5,5-tetraethylpyrrolidineyloxyl] |  |  |  |  |  |  |  |  |  |  |  | Decay in liver homogenates [1]: significantly decayed
CCC1(CC)CC(CNC(=O)C[P+](c2ccccc2)(c2ccccc2)c2ccccc2)C(CC)(CC)N1[O].[Cl-] (centres unmarked) [Compound 7, 3-(2-triphenylphosphonio)acetamidomethyl-2,2,5,5-tetraethylpyrrolidine-1-oxyl chloride] |  |  |  |  |  |  |  |  |  |  |  | Decay in liver homogenates [1]: significantly decayed
CC1(C)CC(=O)CC(C)(C)N1[O] [Nitroxide 1, 2,2,6,6-tetramethyl-4-oxo(piperidine-1-yloxyl) radical, reference compound] | 6.9 ± 0.1 | 37% | 7.2 ± 0.8 ^a M^−1·s^−1 | 5.75 ± 0.04 | 15% | 1.2 ± 0.3 nmol·min^−1·mg^−1 prot | 5.1 ± 0.3 nmol·min^−1·mg^−1 prot | 11.1 ± 0.8 | 2.8 ± 0.2 | 0.0 *** nmol·min^−1·mg^−1 prot | 0.0 *** nmol·min^−1·mg^−1 prot | Initial rate of decrease, + Clo [3, 6]: 4.3 ± 0.4 nmol·min^−1·mg^−1·prot; Initial rate of decrease, + Clo (per P450) [3, 6]: 1.1 ± 0.2 nmol·min^−1·nmol^−1·P450; Initial rate of decrease, +DPI [3, 7]: 2.7 ± 0.3 nmol·min^−1·mg^−1·prot; Initial rate of decrease, +DPI (per P450) [3, 7]: 0.70 ± 0.08 nmol·min^−1·nmol^−1·P450; Initial rate of decrease, WS [3, 8]: 19.3 ± 0.9 nmol·min^−1·mg^−1·prot; Initial rate of decrease, WS (per P450) [3, 8]: 5.0 ± 0.5 nmol·min^−1·nmol^−1·P450; Initial rate of decrease, -NADPH ([3]; without NADPH, nitroxide 100 μM): 0.0 ** nmol·min^−1·mg^−1·prot; Initial rate of decrease, -RLM ([3]; without RLM, nitroxide 100 μM): 0.0 ** nmol·min^−1·mg^−1·prot; Initial second-order reaction rate constant k0 for reduction by excess ascorbate ([4]; ref 57): 6.9 ± 0.7 M⁻¹ s⁻¹; Initial rate of decrease, + Clo (per P450) [5]: 0.30 ± 0.09 nmol·min^−1·nmol^−1 P450; Initial rate of decrease, +DPI (per P450) [5]: 1.31 ± 0.07 nmol·min^−1·nmol^−1 P450
CC1(C)CC(C(=O)O)C(C)(C)N1[O] (centres unmarked) [Nitroxide 2, 3-carboxy-2,2,5,5-tetramethyl-1-pyrrolidinyloxyl] | 0.072 ± 0.003 |  | 0.060 ± 0.003 ^a M^−1·s^−1 | 0.079 ± 0.001 | 42% | 0.94 ± 0.09 nmol·min^−1·mg^−1 prot | 2.1 ± 0.3 nmol·min^−1·mg^−1 prot | 4.8 ± 0.8 | 1.2 ± 0.1 | 0.0 ** nmol·min^−1·mg^−1 prot | 0.0 ** nmol·min^−1·mg^−1 prot | Initial second-order reaction rate constant k0 for reduction by excess ascorbate ([4]; ref 70): 0.11 ± 0.01 M⁻¹ s⁻¹; Initial rate of decrease, + Clo (per P450) [5]: 0.24 ± 0.03 nmol·min^−1·nmol^−1 P450; Initial rate of decrease, +DPI (per P450) [5]: 0.54 ± 0.07 nmol·min^−1·nmol^−1 P450
CCC1(CC)CC(C(=O)O)C(CC)(CC)N1[O] (centres unmarked) [Nitroxide 3, 3-carboxy-2,2,5,5-tetraethyl-1-pyrrolidinyloxyl] | 0.0011 ± 0.0002 | hardly detectable | 0.0011 ± 0.0002 ^a M^−1·s^−1 | 0.002 ± 0.001 | not the case | 0.0 ** nmol·min^−1·mg^−1 prot | 0.0 ** nmol·min^−1·mg^−1 prot | 1.8 ± 0.2 | 0.46 ± 0.05 | 0.0 ** nmol·min^−1·mg^−1 prot | 0.0 ** nmol·min^−1·mg^−1 prot | Initial second-order reaction rate constant k0 for reduction by excess ascorbate ([4]; ref 30): ≤0.001 M⁻¹ s⁻¹; Decay in 30 min (conversion by P450) [5]: 5–10%
CCC1(CC)C=C(C(=O)O)C(CC)(CC)N1[O] [Nitroxide 4, 3-carboxy-2,2,5,5-tetrethyl-pyrrolinyloxyl] | 0.0077 ± 0.0009 | hardly detectable | 0.00122 ± 0.00003 ^a M^−1·s^−1 |  | not the case | 0.0 ** nmol·min^−1·mg^−1 prot | 0.0 ** nmol·min^−1·mg^−1 prot | 0.84 ± 0.09 | 0.22 ± 0.03 | 0.0 ** nmol·min^−1·mg^−1 prot | 0.0 ** nmol·min^−1·mg^−1 prot | Decay in 30 min (conversion by P450) [5]: 5–10%
CCC1(CC)c2ccc(C(=O)O)cc2C(CC)(CC)N1[O] [Nitroxide 5, 5-carboxy-1,1,3,3-tetraethyl-2-isoindolinyloxyl] | 0.02 ± 0.01 | 30% |  |  | not the case | 0.0 *** nmol·min^−1·mg^−1 prot | 0.0 *** nmol·min^−1·mg^−1 prot | 3.4 ± 0.2 | 0.88 ± 0.05 | 0.0 *** nmol·min^−1·mg^−1 prot | 0.0 *** nmol·min^−1·mg^−1 prot | New six-line paramagnetic species formed, share of the initial nitroxide ([5]; 300 μM nitroxide, RLM 30 μM P450, 2 mM NADPH, 21 °C, at 10 min (maximum)): 7%
